Experimental findings from US10561633B2, “Hydroxyflavanones as appetite stimulants” (Symrise AG, priority 2014, dated 2020) are described below.

The subject of one experiment is 3T3-L1 adipocytes. In words: Fatty acid uptake in 3T3-L1 adipocytes (QBT Fatty Acid Uptake kit). The experiment is classed as cell-based. To be noted: 30 min preincubation, AUC of fluorescence over one hour vs EtOH control. The method, then: 3T3-L1 preadipocytes (ATCC CL-173) are used as the cell model for the uptake of free fatty acid into peripheral cells, here adipocytes. Cultivation is carried out at 37° C. and 5% CO2 content in DMEM culture medium to which 10% FBS 4% L-glutamine and 1% penicillin/streptomycin have been added. In order to measure the fatty acid uptake, the 3T3-L1 cells are differentiated in 175 cm^2 cell culture bottles from fully matured adipocytes. To that end, two days after reaching confluence, the cells are stimulated to differentiate for 48 hours by the addition of 10 μg/ml insulin, 1 μM dexamethasone and 0.5 mM isobutyl methyl xanthine from the culture medium. After the cells have been treated for a further 48 hours with 10 μg/ml insulin in the cell culture medium, normal culture medium is again used until the adipocytes are fully mature. The cells are usually used for the test seven to nine days after the onset of differentiation. To that end, the cells are harvested with trypsin and, after a positive vitality test with trypan blue, scattered in a 96-well plate at a rate of 65,000 cells per well. Measurement of the fatty acid uptake is carried out after a 60-minute synchronization of the cells by removal of the fetal bovine serum and a 30-minute preincubation with Hank's balanced salt solution, to which 20 mM HEPES (HBSS/HEPES), with or without the addition of from 0.01 to 10 μM of homoeriodictyol, by means of a fluorescence-labeled fatty acid analog (QBT Fatty Acid Uptake kit, Molecular Devices, Germany), have been added. The change in the area under the curve formed by the increase in the fluorescence signal over the course of one hour is shown in % in comparison with the control. The change in the fatty acid uptake in 3T3-L1 adipocytes after preincubation for 30 minutes with HESS/HEPES buffer with 0.1% ethanol (control) or 0.01-10 μM homoeriodictyol dissolved in HBSS/HEPES buffer is shown in Table 4. Significant differences (p<0.001) relative to the control were tested with a single-factor ANOVA against the control with a subsequent Dunn's post hoc test and are marked ***. Mean values from 3-4 independent experiments with in each case 3 repetitions are shown.

Experiment [1] relates to serotonin plasma concentration. Description: Change in serotonin plasma concentration of healthy subjects after oral homoeriodictyol (crossover human intervention). Format: in vivo. To be noted: 30 mg oral in 125 ml of water, on average 37 minutes after administration, n=10, water control −6.81 ± 10.6, p<0.05. The method, then: In order to determine the serotonin plasma concentration, whole blood is taken from healthy subjects in each case on a test day before and on average 37 minutes after administration of the test solution (1st test day: 125 ml of water; 2nd test day: 30 mg of homoeriodictyol dissolved in 125 ml of water).
The plasma is obtained from the whole blood by refrigerated centrifugation for 15 minutes at 1800×g, and the serotonin concentration in the plasma is determined by an enzyme-based detection method (Serotonin ELISA, DLD Diagnostika, Germany).
The change in the serotonin plasma concentration before and after administration of 125 ml of water or 30 mg of homoeriodictyol dissolved in 125 ml of water is shown in Table 2. There is a significant difference between the two treatments (p<0.05; n=10), which was determined by a dependent, two-sided Student's T-test and is marked *.

The test system of experiment [2] is serotonin plasma concentration. In words: Absolute plasma serotonin concentration after oral administration of 30 mg of homoeriodictyol. The experiment is classed as in vivo, human. To be noted: after oral administration of 30 mg in 125 ml of water, on average 35 minutes, healthy subjects, n=16; before administration 306 ± 152; p<0.05. The method, then: In order to determine the serotonin plasma concentration, whole blood is taken from healthy subjects on a test day before and on average 35 minutes after administration of 30 mg of homoeriodictyol dissolved in 125 ml of water. The plasma is obtained from the whole blood by refrigerated centrifugation for 15 minutes at 1800×g, and the serotonin concentration in the plasma is determined by an enzyme-based detection method (Serotonin-ELISA, DLD Diagnostika, Germany).
The change in the serotonin plasma concentration before and after administration of 30 mg of homoeriodictyol dissolved in 125 ml of water is shown in Table 3. There is a significant difference between the two treatments (p<0.05, n=16), which was determined by a dependent, two-sided Student's T-test and is marked *.

Experiment [3] has as its system Human neuroblastoma cells (SH-SY5Y). In words: Serotonin release from SH-SY5Y cells (Serotonin-ELISA, normalised to DNA content). To be noted: 5 min stimulation, relative to control (0.1% EtOH). Format: cell-based. The method, then:
Human neuroblastoma cells (SH-SY5Y, ATCC number CRL-2266) are used as the cell model for the release of the neurotransmitter serotonin. Cultivation takes place at 37° C. and 5% CO2 content with a mixture consisting of equal parts of Eagle's minimal essential medium (MEM) and F12 medium (in each case with 10% FBS and 1 penicillin/streptomycin). For measurement of the serotonin release, the cells are harvested with trypsin and, after a vitality test by trypan blue staining, sown in 35 mm cell culture dishes in a defined cell number.
After stimulation of 1.25*10^6 human neuroblastoma cells (SH-SY5Y) for 5 minutes with 300 μl of Krebs-Ringer-HEPES buffer, 0.1% ascorbic acid, pH 6.2, with or without addition of the homoeriodictyol, wherein concentrations of 0.001 μM, 0.01 μM, 0.1 μM, 1 μM and 10 μM in the Krebs-Ringer-HEPES buffer are established when the homoeriodictyol is added, the serotonin content is determined by means of an enzyme-based detection method (Serotonin-ELISA sensitive, DLD Diagnostica, Hamburg, Germany). The cells are lyzed with a buffer containing sodium lauroyl sarcosinate and the DNA content is determined by means of a NanoQuant plate (Tecan, Ménnendorf, Switzerland) for normalization of the serotonin release.
The results are shown in % relative to the control (buffer with 0.1% ethanol). n=3, tR=2. Significant differences in the treatments relative to the control were tested with a single-factor ANOVA with a subsequent Holm-Sidak post hoc test against the control and marked according to the following scheme: * p≤0.05; ** p≤0.01; *** p≤0.001. Concentration-dependent differences were tested with a single-factor ANOVA with a subsequent Holm-Sidak post hoc test and identified by different letters (a, b), wherein no common letter marks a significant difference.

Marks after values point to notes of the source that are not given here.

With `COc1cc(C2CC(=O)c3c(O)cc(O)cc3O2)ccc1O` (centres unmarked) [Homoeriodictyol, homoeriodictyol], the “Change in fatty acid uptake” value is listed as 4.34% with 3T3-L1 adipocytes (0.01 μM); 8.78*** % with 3T3-L1 adipocytes (0.1 μM, p<0.001); 4.10% in the experiment on 3T3-L1 adipocytes (1 μM); −0.47% with 3T3-L1 adipocytes (10 μM). Moreover, the “Change in the serotonin concentration in the plasma after administration of the test solution” value in experiment [1] is −19.1 ± 10.6. The “Serotonin concentration in the plasma” value in experiment [2] is 192 ± 122 nmol. Moreover, the “Serotonin release T/C” value in experiment [3] (0.001 μM) is 62.2%; in experiment [3] (0.01 μM) it was 42.9%; in experiment [3] (0.1 μM) it was 42.6%; in experiment [3] (1 μM) it was 43.5%; in experiment [3] (10 μM) it was 71.9%.
